Experimental data as given in US20260028365A1 (BIOGEN MA INC., priority 2022, published 2026).

Assays:
[1] = molecular target: JH2 domain of human Tyk2 (Homo sapiens (Human), UniProt P29597); test: JH2 Biochemical Assay (TR-FRET probe displacement); assay type: binding
Method: The inhibitory potency of compounds of the disclosure against the kinase activity of recombinantly generated JH2 domain of human Tyk2 was evaluated in a plate-based assay using a TR-FRET assay platform. Briefly, 2 nM of recombinant JH2 domain [10×His-tagged TYK2 JH2 domain (amino acid 575-876)] was combined with 2 nM probe ((S)-6-amino-9-(2-carboxy-4-((1-(3-(8-methyl-5-(methylamino)-8H-imidazo[4,5-d]thiazolo[5,4-b]pyridin-2-yl)phenyl)ethyl)carbamoyl)phenyl)-3-iminio-5-sulfo-3H-xanthene-4-sulfonate), 0.1 nM Tb-labeled anti-His antibody, and compounds of disclosure for 60 minutes. Compounds are tested at either 10 μM or 1 μM top concentration, 10 points of 3-fold dilution. The TR-FRET signal inversely correlates to the amount of probe displaced by compounds and signal was calculated by taking the ratio of fluorescence at 520 nm and 495 nm. The data was normalized and the percent activity versus log concentration of compound was fitted with a 4-parameter logistic model to generate IC50 curves.

[2] = molecular target: Tyk2 (Homo sapiens (Human), UniProt P29597); test: pSTAT4 Cell Assay (MSD, NK92 cells); assay type: cell-based; details: MSD
[3] = JH2 domain of human Tyk2, TR-FRET probe displacement
[4] = TR-FRET probe displacement, JH2 domain of human Tyk2

Tyk2, sequence (P29597 whole entry, the tested form may be a part): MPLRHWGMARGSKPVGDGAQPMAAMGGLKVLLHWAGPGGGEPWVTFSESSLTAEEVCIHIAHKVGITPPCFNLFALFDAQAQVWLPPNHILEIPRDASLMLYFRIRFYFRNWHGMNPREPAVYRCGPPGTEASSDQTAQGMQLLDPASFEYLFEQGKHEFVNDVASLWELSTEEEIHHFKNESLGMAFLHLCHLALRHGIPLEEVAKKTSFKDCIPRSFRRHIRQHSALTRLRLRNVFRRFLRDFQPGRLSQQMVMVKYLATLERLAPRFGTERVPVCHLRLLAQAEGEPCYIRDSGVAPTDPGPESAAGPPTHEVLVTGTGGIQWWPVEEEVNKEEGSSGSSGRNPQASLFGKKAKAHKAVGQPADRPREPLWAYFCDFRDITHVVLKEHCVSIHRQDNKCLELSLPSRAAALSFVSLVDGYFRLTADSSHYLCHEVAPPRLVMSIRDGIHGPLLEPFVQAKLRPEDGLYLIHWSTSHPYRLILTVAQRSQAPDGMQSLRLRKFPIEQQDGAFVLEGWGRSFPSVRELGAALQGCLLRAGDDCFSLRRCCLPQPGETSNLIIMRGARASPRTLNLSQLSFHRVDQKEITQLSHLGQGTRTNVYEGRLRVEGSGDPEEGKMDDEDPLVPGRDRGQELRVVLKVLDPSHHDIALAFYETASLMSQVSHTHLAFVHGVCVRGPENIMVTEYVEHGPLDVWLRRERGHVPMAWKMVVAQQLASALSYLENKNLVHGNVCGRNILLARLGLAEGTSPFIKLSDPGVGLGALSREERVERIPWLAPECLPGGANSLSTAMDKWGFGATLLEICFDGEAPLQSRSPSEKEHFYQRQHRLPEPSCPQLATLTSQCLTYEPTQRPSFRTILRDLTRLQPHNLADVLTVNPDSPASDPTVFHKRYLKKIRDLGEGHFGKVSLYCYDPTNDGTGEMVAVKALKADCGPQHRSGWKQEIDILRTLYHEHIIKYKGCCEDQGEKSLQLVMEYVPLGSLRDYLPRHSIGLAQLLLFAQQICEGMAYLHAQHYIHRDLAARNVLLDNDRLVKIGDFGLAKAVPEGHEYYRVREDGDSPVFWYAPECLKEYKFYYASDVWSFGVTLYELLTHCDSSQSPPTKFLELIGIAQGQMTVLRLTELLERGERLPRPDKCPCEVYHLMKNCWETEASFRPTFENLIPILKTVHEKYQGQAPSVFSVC
JH2 domain of human Tyk2, sequence (P29597 575-876): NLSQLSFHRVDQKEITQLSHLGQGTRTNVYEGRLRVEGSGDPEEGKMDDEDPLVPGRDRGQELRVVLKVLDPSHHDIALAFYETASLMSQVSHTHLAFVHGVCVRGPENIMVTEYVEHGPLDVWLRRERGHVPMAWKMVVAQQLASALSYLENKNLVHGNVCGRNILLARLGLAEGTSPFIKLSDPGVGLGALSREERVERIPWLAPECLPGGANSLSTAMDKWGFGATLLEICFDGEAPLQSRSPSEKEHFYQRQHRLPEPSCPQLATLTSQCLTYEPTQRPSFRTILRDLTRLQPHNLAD

Compound	IC50 [1, 3] [nM]	IC50 [2] [nM]	IC50 [1, 4] [nM]	other results
CC(=O)Nc1cc(Nc2cc(C)nc(C(C)(F)F)n2)c(-c2cnn(C(C)C)n2)cn1 [Example 610, N-(4-((2-(1,1-difluoroethyl)-6-methylpyrimidin-4-yl)amino)-5-(2-isopropyl-2H-1,2,3-triazol-4-yl)pyridin-2-yl)acetamide]	≤ 10	≤ 10	–	–
CC(=O)Nc1cc(Nc2ccnc(C(C)(F)F)n2)c(-c2ccn3ncnc3n2)cn1 [Example 537, N-(5-([1,2,4]triazolo[1,5-a]pyrimidin-5-yl)-4-((2-(1,1-difluoroethyl)pyrimidin-4-yl)amino)pyridin-2-yl)acetamide]	≤ 10	10 to 100	–	–
CC(=O)Nc1cc(Nc2ccnc(C(C)(F)F)n2)c(-c2nc(C)ns2)cn1 [Example 716, N-(4-((2-(1,1-difluoroethyl)pyrimidin-4-yl)amino)-5-(3-methyl-1,2,4-thiadiazol-5-yl)pyridin-2-yl)acetamide]	≤ 10	10 to 100	–	–
CC(=O)Nc1cc(Nc2cc(OC3CC3)nc(C(C)(F)F)n2)c(O[C@H]2C[C@H](F)C2)cn1 [Example 352, N-(4-((6-cyclopropoxy-2-(1,1-difluoroethyl)pyrimidin-4-yl)amino)-5-((1r,3r)-3-fluorocyclobutoxy)pyridin-2-yl)acetamide]	–	10 to 100	≤ 10	–
COc1cc(-c2cnc(NC(C)=O)cc2Nc2cc(C)nc(C(C)(F)F)n2)nc(C)n1 [Example 155, N-(4-((2-(1,1-difluoroethyl)-6-methylpyrimidin-4-yl)amino)-5-(6-methoxy-2-methylpyrimidin-4-yl)pyridin-2-yl)acetamide]	–	10 to 100	≤ 10	–
COCC12CC(c3nc(C)cc(Nc4cc(NC(C)=O)ncc4-c4ccn(C)n4)n3)(CO1)C2 [Example 561, N-(4-((2-(1-(methoxymethyl)-2-oxabicyclo[2.1.1]hexan-4-yl)-6-methylpyrimidin-4-yl)amino)-5-(1-methyl-1H-pyrazol-3-yl)pyridin-2-yl)acetamide]	10 to 100	–	–	–
CC(=O)Nc1cc(Nc2cc(C)nc(C(C)(F)F)n2)c(CCCN(C)C)cn1 [Example 151, N-(4-((2-(1,1-difluoroethyl)-6-methylpyrimidin-4-yl)amino)-5-(3-(dimethylamino)propyl)pyridin-2-yl)acetamide]	–	–	100 to 1000	–
CC(=O)Nc1cc(Nc2cc(C)nc(C(C)(F)F)n2)c(-c2cc(F)ccn2)cn1 [Example 624, N-(4′-((2-(1,1-difluoroethyl)-6-methylpyrimidin-4-yl)amino)-4-fluorO[2,3′-bipyridin]-6′-yl)acetamide]	≤ 10	–	–	–
CC(=O)Nc1cc(Nc2cc(C)nc(C34COC(C3)C4)n2)c(-c2ccc(F)cn2)cn1 [Example 752, N-(4′-((2-(2-oxabicyclo[2.1.1]hexan-4-yl)-6-methylpyrimidin-4-yl)amino)-5-fluorO[2,3′-bipyridin]-6′-yl)acetamide]	–	–	–	IC50 ([1]; TR-FRET probe displacement, JH2 domain): ≤ 10 nM
COc1cnc(NC(C)=O)cc1Nc1cc(OC2CC2)nc(C(F)(F)F)n1 [Example 437, N-(4-((6-cyclopropoxy-2-(trifluoromethyl)pyrimidin-4-yl)amino)-5-methoxypyridin-2-yl)acetamide]	10 to 100	–	–	–
CC(=O)Nc1cc(Nc2cc(C)nc(C(C)(F)F)n2)c(-c2nc3c(s2)CN(CC#N)CC3)cn1 [Example 285, N-(5-(5-(cyanomethyl)-4,5,6,7-tetrahydrothiazolo[5,4-c]pyridin-2-yl)-4-((2-(1,1-difluoroethyl)-6-methylpyrimidin-4-yl)amino)pyridin-2-yl)acetamide]	–	–	≤ 10	–
CCc1cc(Nc2cc(NC(C)=O)ncc2-c2noc(C)n2)nc(C(C)(F)F)n1 [Example 170, N-(4-((2-(1,1-difluoroethyl)-6-ethylpyrimidin-4-yl)amino)-5-(5-methyl-1,2,4-oxadiazol-3-yl)pyridin-2-yl)acetamide]	–	–	10 to 100	–
CCOc1cnc(NC(C)=O)cc1N(C)c1cc(C)nc(C(C)(F)F)n1 [Example 54, N-(4-((2-(1,1-difluoroethyl)-6-methylpyrimidin-4-yl)(methyl)amino)-5-ethoxypyridin-2-yl)acetamide]	–	–	≥ 1000	–
